# “Also recorded” adds a separate entry of the source. Where a name gives a salt, the structure may show the parent alone.
# Tests used:
# [1] = tested on: β-adrenergic receptor; conditions: Garrcha et al. 1985; cited from earlier work
# [2] = tested on: TNF-alpha; assay: TNF level in patients with congestive heart failure before and on bupropion; type: in vivo, human; conditions: for TNF: NYSHA Class I CHF
# Protocol: A person with NYSHA Class I CHF who started on bupropion for major depression. Their TNF before bupropion was 347 pg/ml and 5 pg/ml after two months on bupropion 150 mg twice a day (BID). […] In addition, a person with a history of two myocardial infarctions and NYSHA Class II CHF, who started on bupropion for major depression and desire to stop a 1.5 container/day chewing tobacco habit. Their TNF before starting bupropion was 433 pg/ml, and […] and then four weeks on bupropion 150 mg three times a day (TID). They subsequently stopped using tobacco and their depression is in remission. Finally, a person with NYSHA Class I CHF-TNF was 303 pg/ml before bupropion was started for depression and 7 pg/ml on 150 mg TID.
# [3] = tested on: platelet and leukocyte numbers in peripheral blood; assay: Platelet and leukocyte counts in peripheral blood 4 h after LPS challenge; type: in vivo, BALB/c mice; conditions: bupropion 100 mg/kg i.p. 1 h before LPS, hydrochloride
# Protocol: FIG. 6 is a bar graph depicting normalization of platelet and leukocyte levels by bupripion treatment. Groups of BALB/c mice were injected with bupropion 100 mg/kg (Wellbutrin, Glaxo) or with placebo i.p. in saline 1 h before challenge with 600 μg of LPS (DL-100) by i.p. route. Platelet and leukocyte numbers were evaluated in peripheral blood samples collected 4 h after LPS challenge in an automated cell counter (Bayer). * P<0.05 placebo compared with normal levels; # P<0.05 bupropion compared with placebo. In a shock often platelet levels drop precipitously due to intravascular coagulation and leukocyte also fall secondary to TNF induced apoptosis. The normalization by bupropion is consistent with the other effects of bupropion in this model.
# Groups of mice were injected intraperitoneally (i.p.) with a dose of 600 μg of LPS (from Escherichia coli serotype 0111 :B4, Sigma, St. Louis, Mo., USA) in saline (previously determined as LD 100) 1 h after injection of placebo or bupropion. In some experiments, groups of mice received i.p. injection of propranolol (1 mg/Kg), SCH23390 (25 μg/kg) and sulpiride (25 mg/Kg) 1 h prior to injection of bupropion. […]. To determine serum TNF, IL-1 beta and IL-10 levels, mice were sacrificed 90 min after injection of LPS and bled by axilar vein puncture. […]
# [4] = tested on: CD patients; assay: Case reports of Crohn's disease patients on bupropion (CDAI, symptoms, flares); type: in vivo, human
# From the text: Also, multiple toxicity issues are associated with taking medicines such as azathioprine, methotrexate, and steroids over time (Sartor R B. New therapeutic approaches to Crohn;s disease. N Engl J Med 2000;342:1664-1666). In CD, TNF is increased, and TNF is thought to play a central role in CD pathogenesis (Papadakis K A, Targan S R. Role of cytokines in the pathogenesis of inflammatory bowel disease. Annu Rev Med 2000;51:289-298). Monoaminergic and dopaminergic treatments can lower levels of TNF-alpha via increased intracellular adenosine 3′,5′-cyclic monophosphate (cAMP).
# person one presented in May of 1999 for treatment of an episode of major depression, superimposed on a chronic mild depressed state (dysthymia). […] They were not usually pain-free during the week, though usually did have several pain-free hours in a given day. […] Inadvertent loss of stool several times a month required daily use of adult protective pads. They were taking fluoxetine 40 mg every day for depression, and mesalamine 500 mg twice a day. CDAI was 202.
# After careful review of treatment options, they were started on bupropion (fluoxetine was stopped) with up-titration to 150 mg twice a day. Their abdominal complaints eased over the next months, and the major depression remitted. The baseline dysthymia remained. To better treat the dysthymia, bupropion was raised to 150 mg three times daily with a further lowering of their CDAI. The mesalamine was tapered off. Their CDAI is currently approximately zero. They have one well-formed bowel movement daily and has been without abdominal symptoms or encopresis for 19 months now. They have had no CD flares since starting bupropion. Twice in the last year, they stopped bupropion on their own accord because they felt completely well and felt they didn't need bupropion anymore.
# The above-described response to bupropion was consistent with other responses in CD patients. For example, a person with a 20-year history of Crohn's enteritis with multiple surgeries, including 4 small bowel resections. […] The patient was taking fluoxetine to help with pain control. […] Even though they were not able to stop smoking, the patient felt better on bupropion so they decided to continue this medicine with their family doctor's consent. Currently, the patient is taking bupropion 150 mg three times daily. […] Under their doctor's supervision, they have recently tapered their azathioprine from 100 to 50 mg every day without any increase in CDAI.
smiles,measurement,setting,value
"CC(NC(C)(C)C)C(=O)c1cccc(Cl)c1 (racemic) [bupropion, (.±.)-1-(3-chlorophenyl)-2-[(1,1-dimethylethyl)amino]-1-propanone hydrochloride]",compensatory β-adrenergic receptor down-regulation,[1],does not cause
same,maintenance of low TNF,[2]; person two on bupropion,maintained for more than a year
same,TNF,"[2]; person two, on bupropion 150 mg TID, 303 pg/ml before",7 pg/mL
same,TNF,"[2]; person, after two months on bupropion 150 mg BID, 347 pg/ml before",5 pg/mL
same,change of TNF-alpha on bupropion,[2]; three patients with CHF,dropped profoundly
same,leukocyte levels,[3],higher leukocyte levels; also recorded: normalization
same,platelet counts,[3],significantly higher than placebo treated mice and similar to those of normal mice; also recorded: normalization
same,CD flares since starting bupropion,"[4]; case patients, hydrochloride",no CD flares; also recorded: no CD flares or associated surgeries
same,time without abdominal symptoms or encopresis,[4]; person one on bupropion,19 months
same,CDAI,"[4]; person one, colonic CD, bupropion 150 mg three times daily, CDAI 202 before bupropion",approximately zero
same,abdominal cramping and blood per rectum after restarting bupropion,"[4]; person one, symptoms recurred on two self-chosen stops",remitted within weeks
same,CDAI,"[4]; person, Crohn's enteritis, bupropion 150 mg three times daily, CDAI approximately 275 before",about 45
same,Crohn's symptoms,"[4]; person, bupropion 150 mg three times daily",alleviated completely
same,side effects or toxicities,"[4]; two CD cases, over 2 years",without significant side effects or toxicities
same,remission of CD,[4]; two cases,near complete and long-lasting (over 2 years) remissions

# Source: patent US20060173080A1, “Methods of modulating TNF using bupropion” (The Regents of the University of California, priority 2002, published 2006)
